From US20200399390A1, “METHODS FOR PRODUCING LYMPHOCYTE PROGENITORS” (MURDOCH CHILDRENS RESEARCH INSTITUTE, priority 2017, published 2020)

System: B-lymphocytes
Assay: B-cell progenitor production by co-culture on OP9 stromal cells
Assay type: cell-based, human
Experimental: Co-Culture Systems Involving DLL4 Stromal or OP9 Stromal Cells for Production of B-Cell Progenitors
Co-culture systems generally used alpha-MEM medium supplemented with 10˜20% fetal calf serum (FCS), Penicillin Streptomycin, L-glutamine and 2-Mercaptoethanol (0.1 mM).
Stromal cells were seeded into an appropriate number of wells of a multi-well plate and allowed to grow until they reached confluency.
At around day 15, cells were transferred onto confluent layers of OP9 or OP9-DLL4 stromal cells and cultured in the following conditions:
Medium: alpha-MEM medium supplemented with 5˜10% FCS, penicillin streptomycin, L-glutamine and 2-mercaptoethanol (0.1 mM)
Cytokines: SCF (50 ng/mL) and DAPT (10 uM).
Media was changed every 4˜5 days.
Every 7˜10 days, the culture was passaged onto new wells coated with fresh layers of stromal cells.
As an alternative to using OP9 stromal cells expressing DLL4 (DLL4-0P9) for B-cell progenitor production according to Example 1, which requires addition of a NOTCH1 inhibitor such as DAPT to the culture medium to permit B-cell development, OP9 stromal cells (without DLL4) can also be used (FIG. 20). This system generates a larger number of B-cell progenitors (FIG. 20B), a small fraction of which (˜1%) are IgM^+ (FIG. 20B). This frequency of IgM^+ cells is similar to that seen with cord blood CD34^+ cells cultured in similar systems.

## C[C@H](NC(=O)Cc1cc(F)cc(F)c1)C(=O)N[C@H](C(=O)OC(C)(C)C)c1ccccc1 [DAPT, N—[N-(3,5-difluorophenacetyl)-L-alanyl]-S-phenylglycine t-butyl ester]
OP9 stromal cell co-culture, SCF (50 ng/mL) and DAPT (10 uM), from around day 15
  effect of presence of DAPT on development of B-lymphocytes: enhances the development of B-lymphocytes
OP9 stromal cells (without DLL4), FIG. 20
  effect of addition of DAPT on B-cell progenitor generation: further enhanced
